According to the supplement of paper PMC10627819:

Tests used:
S. aureus DSM 20231 [1] = test: Bliss interaction score (quartile over a dose matrix) (fitness difference); higher = more antagonism (negative = synergy)
Summary of the method: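 Quartiles of the Bliss score were taken over technical, biological and donor/recipient replicates. That score is observed fitness minus the product of the single-drug fitness values, which were inferred from combination data. Fitness itself is OD595 at entry into stationary phase divided by the plate's robust no-drug mean, with a cap at 1.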

S. aureus DSM 20231 [2] = test: fitness (endpoint OD595 vs no drug) (fraction); higher = more growth
Summary of the method: (§1)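 Plates with 384 wells were inoculated at OD595 0.01 using 30 µl of TSB, LB Lennox or CY, or 55 µl for S. pneumoniae. Incubation was at 37 °C, with OD595 measured every 30 min for 14 h. Fitness is the stationary-phase transition optical density over the robust mean of no-drug control wells, after first-reading background subtraction; it is capped at 1.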

S. pneumoniae D39V = test: as above
Summary of the method: as §1

S. aureus Newman = test: as above
Summary of the method: as §1

B. subtilis 168 = test: as above
Summary of the method: as §1
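For Bliss interaction score (quartile over a dose matrix) in this document: first quartile when negative (synergy) and third quartile when positive (antagonism).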

CC(=O)OC[C@H]1O[C@@H]([S-])[C@H](OC(C)=O)[C@@H](OC(C)=O)[C@@H]1OC(C)=O.CCP(CC)CC.[Au+] [Auranofin] + CC(=O)Oc1cccc2c1C(=O)c1c(OC(C)=O)cc(C(=O)O)cc1C2=O [Diacerein]
Conditions	Bliss interaction score
S. aureus DSM 20231 [1]	-0.466

CC(=O)OC[C@H]1O[C@@H]([S-])[C@H](OC(C)=O)[C@@H](OC(C)=O)[C@@H]1OC(C)=O.CCP(CC)CC.[Au+] [Auranofin] + C[C@H]1C[C@@H]2[C@H]([C@@H](O)C[C@@]3(C)[C@H]2CC[C@]3(O)C(=O)CO)[C@@]2(C)C=CC(=O)C=C12 [Methylprednisolone]
Conditions	Bliss interaction score
S. aureus DSM 20231 [1]	0.162

CCc1oc2ccccc2c1C(=O)c1cc(Br)c(O)c(Br)c1 [Benzbromarone] + C1=CC(=CC(=C1)Cl)NN=C(C#N)C#N [CCCP]
Conditions	Bliss interaction score
S. aureus DSM 20231 [1]	-0.103

CCc1oc2ccccc2c1C(=O)c1cc(Br)c(O)c(Br)c1 [Benzbromarone] + CC(C1CCC(C(O1)OC2C(CC(C(C2O)OC3C(C(C(CO3)(C)O)NC)O)N)N)N)NC [Gentamicin]
Conditions	Bliss interaction score
S. aureus DSM 20231 [1], main component drawn	0.189

CCc1oc2ccccc2c1C(=O)c1cc(Br)c(O)c(Br)c1 [Benzbromarone] + N[C@@H]1CONC1=O [CycloserineD]
Conditions	Bliss interaction score
S. aureus DSM 20231 [1]	-0.109

CCc1oc2ccccc2c1C(=O)c1cc(Br)c(O)c(Br)c1 [Benzbromarone] + O=C(O[C@@H]1Cc2c(O)cc(O)cc2O[C@@H]1c1cc(O)c(O)c(O)c1)c1cc(O)c(O)c(O)c1 [EGCG]
Conditions	Bliss interaction score
S. aureus DSM 20231 [1]	-0.139

O=C(N[C@H](CO)[C@H](O)c1ccc([N+](=O)[O-])cc1)C(Cl)Cl [Chloramphenicol] + CC(=O)Oc1cccc2c1C(=O)c1c(OC(C)=O)cc(C(=O)O)cc1C2=O [Diacerein]
Conditions	Bliss interaction score
S. aureus DSM 20231 [1]	-0.41

O=C(N[C@H](CO)[C@H](O)c1ccc([N+](=O)[O-])cc1)C(Cl)Cl [Chloramphenicol] + CCCSc1nc(N[C@@H]2C[C@H]2c2ccc(F)c(F)c2)c2nnn([C@@H]3C[C@H](OCCO)[C@@H](O)[C@H]3O)c2n1 [Ticagrelor]
Conditions	Bliss interaction score
S. aureus DSM 20231 [1]	-0.239

O=C(N[C@H](CO)[C@H](O)c1ccc([N+](=O)[O-])cc1)C(Cl)Cl [Chloramphenicol] + C[C@H]1C[C@@H]2[C@H]([C@@H](O)C[C@@]3(C)[C@H]2CC[C@]3(O)C(=O)CO)[C@@]2(C)C=CC(=O)C=C12 [Methylprednisolone]
Conditions	Bliss interaction score
S. aureus DSM 20231 [1]	-0.204

CC[C@H]1OC(=O)[C@H](C)[C@@H](O[C@H]2C[C@@](C)(OC)[C@@H](O)[C@H](C)O2)[C@H](C)[C@@H](O[C@@H]2O[C@H](C)C[C@H](N(C)C)[C@H]2O)[C@](C)(OC)C[C@@H](C)C(=O)[C@H](C)[C@@H](O)[C@]1(C)O [Clarithromycin] + CC(C)Cc1ccc(C(C)C(=O)O)cc1 [Ibuprofen]
Conditions	Bliss interaction score
S. aureus DSM 20231 [1]	-0.171

CC[C@H]1OC(=O)[C@H](C)[C@@H](O[C@H]2C[C@@](C)(OC)[C@@H](O)[C@H](C)O2)[C@H](C)[C@@H](O[C@@H]2O[C@H](C)C[C@H](N(C)C)[C@H]2O)[C@](C)(OC)C[C@@H](C)C(=O)[C@H](C)[C@@H](O)[C@]1(C)O [Clarithromycin] + CN1CCC[C@H]1c1cccnc1 [Nicotine]
Conditions	Bliss interaction score
S. aureus DSM 20231 [1]	-0.223

CC[C@H]1OC(=O)[C@H](C)[C@@H](O[C@H]2C[C@@](C)(OC)[C@@H](O)[C@H](C)O2)[C@H](C)[C@@H](O[C@@H]2O[C@H](C)C[C@H](N(C)C)[C@H]2O)[C@](C)(OC)C[C@@H](C)C(=O)[C@H](C)[C@@H](O)[C@]1(C)O [Clarithromycin] + C[C@H]1C[C@@H]2[C@H]([C@@H](O)C[C@@]3(C)[C@H]2CC[C@]3(O)C(=O)CO)[C@@]2(C)C=CC(=O)C=C12 [Methylprednisolone]
Conditions	Bliss interaction score
S. aureus DSM 20231 [1]	-0.275

CCC[C@@H]1C[C@@H](C(=O)N[C@@H]([C@H]2O[C@H](SC)[C@H](O)[C@@H](O)[C@H]2O)[C@H](C)Cl)N(C)C1 [Clindamycin] + CO/N=C(\C(=O)N[C@@H]1C(=O)N2C(C(=O)O)=C(COC(C)=O)CS[C@H]12)c1csc(N)n1 [Cefotaxime]
Conditions	fitness
B. subtilis 168, first compound 0.0625 µg/mL, partner 0.5 µg/mL	0.138
B. subtilis 168, first compound 0.0625 µg/mL, partner 1 µg/mL	0.0488
B. subtilis 168, first compound 0.0625 µg/mL, partner 2 µg/mL	0.0865
B. subtilis 168, first compound 0.125 µg/mL, partner 0.5 µg/mL	0.096
B. subtilis 168, first compound 0.125 µg/mL, partner 1 µg/mL	0.0462
B. subtilis 168, first compound 0.125 µg/mL, partner 2 µg/mL	0.0669
B. subtilis 168, first compound 0.25 µg/mL, partner 0.5 µg/mL	0.0789
B. subtilis 168, first compound 0.25 µg/mL, partner 1 µg/mL	0.0542
B. subtilis 168, first compound 0.25 µg/mL, partner 2 µg/mL	0.0739
S. aureus DSM 20231 [2], first compound 0.0625 µg/mL, partner 0.312 µg/mL	0.11
S. aureus DSM 20231 [2], first compound 0.125 µg/mL, partner 0.039 µg/mL	0.0991
S. aureus DSM 20231 [2], first compound 0.125 µg/mL, partner 0.078 µg/mL	0.0447
S. aureus DSM 20231 [2], first compound 0.125 µg/mL, partner 0.156 µg/mL	0.0526
S. aureus DSM 20231 [2], first compound 0.125 µg/mL, partner 0.312 µg/mL	0.0465
S. aureus Newman, first compound 0.0312 µg/mL, partner 0.078 µg/mL	0.437
S. aureus Newman, first compound 0.0312 µg/mL, partner 0.156 µg/mL	0.351
S. aureus Newman, first compound 0.0312 µg/mL, partner 0.625 µg/mL	0.055
S. aureus Newman, first compound 0.0312 µg/mL, partner 1.25 µg/mL	0.036
S. aureus Newman, first compound 0.0312 µg/mL, partner 2.5 µg/mL	0.0433
S. aureus Newman, first compound 0.0625 µg/mL, partner 0.078 µg/mL	0.223
S. aureus Newman, first compound 0.0625 µg/mL, partner 0.156 µg/mL	0.114
S. aureus Newman, first compound 0.0625 µg/mL, partner 0.625 µg/mL	0.0368
S. aureus Newman, first compound 0.0625 µg/mL, partner 1.25 µg/mL	0.0614
S. aureus Newman, first compound 0.0625 µg/mL, partner 2.5 µg/mL	0.0509
S. aureus Newman, first compound 0.125 µg/mL, partner 0.078 µg/mL	0.0724
S. aureus Newman, first compound 0.125 µg/mL, partner 0.156 µg/mL	0.0344
S. aureus Newman, first compound 0.125 µg/mL, partner 0.625 µg/mL	0.0721
S. aureus Newman, first compound 0.125 µg/mL, partner 1.25 µg/mL	0.0661
S. aureus Newman, first compound 0.125 µg/mL, partner 2.5 µg/mL	0.0579
S. pneumoniae D39V, first compound 0.0125 µg/mL, partner 0.0018 µg/mL	0.792
S. pneumoniae D39V, first compound 0.0125 µg/mL, partner 0.0035 µg/mL	0.812
S. pneumoniae D39V, first compound 0.0125 µg/mL, partner 0.007 µg/mL	0.763
S. pneumoniae D39V, first compound 0.015 µg/mL, partner 0.0018 µg/mL	0.889
S. pneumoniae D39V, first compound 0.015 µg/mL, partner 0.0035 µg/mL	0.908
S. pneumoniae D39V, first compound 0.015 µg/mL, partner 0.007 µg/mL	0.803
S. pneumoniae D39V, first compound 0.025 µg/mL, partner 0.0018 µg/mL	0.573
S. pneumoniae D39V, first compound 0.025 µg/mL, partner 0.0035 µg/mL	0.549
S. pneumoniae D39V, first compound 0.025 µg/mL, partner 0.007 µg/mL	0.503
S. pneumoniae D39V, first compound 0.03 µg/mL, partner 0.0018 µg/mL	0.709
S. pneumoniae D39V, first compound 0.03 µg/mL, partner 0.0035 µg/mL	0.666
S. pneumoniae D39V, first compound 0.03 µg/mL, partner 0.007 µg/mL	0.569
S. pneumoniae D39V, first compound 0.05 µg/mL, partner 0.0018 µg/mL	0.256
S. pneumoniae D39V, first compound 0.05 µg/mL, partner 0.0035 µg/mL	0.253
S. pneumoniae D39V, first compound 0.05 µg/mL, partner 0.007 µg/mL	0.184
S. pneumoniae D39V, first compound 0.06 µg/mL, partner 0.0018 µg/mL	0.374
S. pneumoniae D39V, first compound 0.06 µg/mL, partner 0.0035 µg/mL	0.354
S. pneumoniae D39V, first compound 0.06 µg/mL, partner 0.007 µg/mL	0.288

one replicate
Conditions	fitness
B. subtilis 168, first compound 0.0039 µg/mL, partner 0.0625 µg/mL	0.681
B. subtilis 168, first compound 0.0039 µg/mL, partner 0.125 µg/mL	0.531
B. subtilis 168, first compound 0.0039 µg/mL, partner 0.25 µg/mL	0.442
B. subtilis 168, first compound 0.0078 µg/mL, partner 0.0625 µg/mL	0.62
B. subtilis 168, first compound 0.0078 µg/mL, partner 0.125 µg/mL	0.482
B. subtilis 168, first compound 0.0078 µg/mL, partner 0.25 µg/mL	0.389
B. subtilis 168, first compound 0.0156 µg/mL, partner 0.0625 µg/mL	0.485
B. subtilis 168, first compound 0.0156 µg/mL, partner 0.125 µg/mL	0.406
B. subtilis 168, first compound 0.0156 µg/mL, partner 0.25 µg/mL	0.314
B. subtilis 168, first compound 0.0625 µg/mL, partner 0.00775 µg/mL	0.473
B. subtilis 168, first compound 0.0625 µg/mL, partner 0.0155 µg/mL	0.389
B. subtilis 168, first compound 0.0625 µg/mL, partner 0.031 µg/mL	0.343
B. subtilis 168, first compound 0.125 µg/mL, partner 0.00775 µg/mL	0.339
B. subtilis 168, first compound 0.125 µg/mL, partner 0.0155 µg/mL	0.304
B. subtilis 168, first compound 0.125 µg/mL, partner 0.031 µg/mL	0.3
B. subtilis 168, first compound 0.25 µg/mL, partner 0.00775 µg/mL	0.33
B. subtilis 168, first compound 0.25 µg/mL, partner 0.0155 µg/mL	0.254
B. subtilis 168, first compound 0.25 µg/mL, partner 0.031 µg/mL	0.111
S. aureus Newman, first compound 0.0312 µg/mL, partner 0.039 µg/mL	0.525
S. aureus Newman, first compound 0.0312 µg/mL, partner 0.312 µg/mL	0.128
S. aureus Newman, first compound 0.0625 µg/mL, partner 0.039 µg/mL	0.161
S. aureus Newman, first compound 0.0625 µg/mL, partner 0.312 µg/mL	0.0773
S. aureus Newman, first compound 0.125 µg/mL, partner 0.039 µg/mL	0.0501
S. aureus Newman, first compound 0.125 µg/mL, partner 0.312 µg/mL	0.113
